Test results published in the NIST ThermoML archive (doi:10.1021/je400659p).
Numbers after ± are expanded uncertainties.

Columns and labels:
[1] = xn = mol fraction of the nth substance listed; conditions: 101 kPa, Liquid, Vibrating tube method
[2] = refractive index (Na D-line) (dimensionless); xn = mol fraction of the nth substance listed; conditions: 101 kPa, Liquid, Standard Abbe refractometry

CCn1cc[n+](C)c1.F[B-](F)(F)F [1-ethyl-3-methylimidazolium tetrafluoroborate] + OCCO
Conditions	mass density, [1] [kg/m3]	refractive index, [2]
293.15 K, x1 = 0.1249	1161.63 ± 0.26	–
293.15 K, x1 = 0.2084	1184.1 ± 0.3	–
293.15 K, x1 = 0.3046	1205.75 ± 0.38	–
293.15 K, x1 = 0.4124	1224.93 ± 0.5	–
293.15 K, x1 = 0.4763	1234.72 ± 0.57	–
293.15 K, x1 = 0.5565	1245.69 ± 0.68	–
293.15 K, x1 = 0.717	1264.34 ± 0.93	–
293.15 K, x1 = 0.7826	1271.14 ± 1	–
293.15 K, x1 = 0.901	1282.2 ± 1.3	–
293.15 K, x1 = 1	1290.63 ± 1.5	–
298.15 K, x1 = 0.1249	1157.85 ± 0.26	1.4239 ± 0.0004
298.15 K, x1 = 0.2084	1180.23 ± 0.3	1.4206 ± 0.0004
298.15 K, x1 = 0.3046	1201.79 ± 0.38	1.4176 ± 0.0004
298.15 K, x1 = 0.4124	1220.94 ± 0.49	1.4151 ± 0.0004
298.15 K, x1 = 0.4763	1230.74 ± 0.57	1.414 ± 0.0004
298.15 K, x1 = 0.5565	1241.72 ± 0.67	1.413 ± 0.0004
298.15 K, x1 = 0.717	1260.43 ± 0.92	1.412 ± 0.0005
298.15 K, x1 = 0.7826	1267.25 ± 1	1.4118 ± 0.0005
298.15 K, x1 = 0.901	1278.35 ± 1.3	1.4115 ± 0.0005
298.15 K, x1 = 1	1286.82 ± 1.5	1.4111 ± 0.0005
303.15 K, x1 = 0.1249	1154.08 ± 0.26	1.4224 ± 0.0004
303.15 K, x1 = 0.2084	1176.36 ± 0.3	1.4192 ± 0.0004
303.15 K, x1 = 0.3046	1197.84 ± 0.38	1.4163 ± 0.0004
303.15 K, x1 = 0.4124	1216.96 ± 0.49	1.4138 ± 0.0004
303.15 K, x1 = 0.4763	1226.77 ± 0.56	1.4127 ± 0.0004
303.15 K, x1 = 0.5565	1237.77 ± 0.67	1.4117 ± 0.0004
303.15 K, x1 = 0.717	1256.53 ± 0.92	1.4105 ± 0.0005
303.15 K, x1 = 0.7826	1263.37 ± 1	1.4103 ± 0.0005
303.15 K, x1 = 0.901	1274.51 ± 1.3	1.4101 ± 0.0005
303.15 K, x1 = 1	1283.02 ± 1.5	1.41 ± 0.0005
313.15 K, x1 = 0.1249	1146.54 ± 0.26	1.4199 ± 0.0004
313.15 K, x1 = 0.2084	1168.63 ± 0.29	1.4167 ± 0.0004
313.15 K, x1 = 0.3046	1189.98 ± 0.37	1.4136 ± 0.0004
313.15 K, x1 = 0.4124	1209.07 ± 0.48	1.411 ± 0.0004
313.15 K, x1 = 0.4763	1218.9 ± 0.55	1.4099 ± 0.0004
313.15 K, x1 = 0.5565	1229.92 ± 0.66	1.4089 ± 0.0004
313.15 K, x1 = 0.717	1248.81 ± 0.9	1.4079 ± 0.0005
313.15 K, x1 = 0.7826	1255.69 ± 1	1.4077 ± 0.0005
313.15 K, x1 = 0.901	1266.9 ± 1.2	1.4076 ± 0.0005
313.15 K, x1 = 1	1275.45 ± 1.4	1.4073 ± 0.0005
323.15 K, x1 = 0.1249	1138.98 ± 0.25	1.4174 ± 0.0004
323.15 K, x1 = 0.2084	1160.91 ± 0.29	1.4142 ± 0.0004
323.15 K, x1 = 0.3046	1182.17 ± 0.36	1.4111 ± 0.0004
323.15 K, x1 = 0.4124	1201.24 ± 0.47	1.4085 ± 0.0004
323.15 K, x1 = 0.4763	1211.09 ± 0.55	1.4074 ± 0.0004
323.15 K, x1 = 0.5565	1222.17 ± 0.65	1.4064 ± 0.0004
323.15 K, x1 = 0.717	1241.18 ± 0.89	1.4054 ± 0.0005
323.15 K, x1 = 0.7826	1248.09 ± 1	1.4054 ± 0.0005
323.15 K, x1 = 0.901	1259.36 ± 1.2	1.4053 ± 0.0005
323.15 K, x1 = 1	1267.97 ± 1.4	1.4051 ± 0.0005
333.15 K, x1 = 0.1249	1131.39 ± 0.25	–
333.15 K, x1 = 0.2084	1153.19 ± 0.28	–
333.15 K, x1 = 0.3046	1174.39 ± 0.36	–
333.15 K, x1 = 0.4124	1193.47 ± 0.46	–
333.15 K, x1 = 0.4763	1203.36 ± 0.54	–
333.15 K, x1 = 0.5565	1214.49 ± 0.64	–
333.15 K, x1 = 0.717	1233.6 ± 0.88	–
333.15 K, x1 = 0.7826	1240.56 ± 0.99	–
333.15 K, x1 = 0.901	1251.89 ± 1.2	–
333.15 K, x1 = 1	1260.55 ± 1.4	–
343.15 K, x1 = 0.1249	1123.78 ± 0.25	–
343.15 K, x1 = 0.2084	1145.48 ± 0.28	–
343.15 K, x1 = 0.3046	1166.65 ± 0.35	–
343.15 K, x1 = 0.4124	1185.76 ± 0.46	–
343.15 K, x1 = 0.4763	1195.68 ± 0.53	–
343.15 K, x1 = 0.5565	1206.88 ± 0.63	–
343.15 K, x1 = 0.717	1226.11 ± 0.87	–
343.15 K, x1 = 0.7826	1233.11 ± 0.98	–
343.15 K, x1 = 0.901	1244.49 ± 1.2	–
343.15 K, x1 = 1	1253.18 ± 1.4	–
353.15 K, x1 = 0.1249	1116.15 ± 0.24	–
353.15 K, x1 = 0.2084	1137.77 ± 0.27	–
353.15 K, x1 = 0.3046	1158.94 ± 0.35	–
353.15 K, x1 = 0.4124	1178.1 ± 0.45	–
353.15 K, x1 = 0.4763	1188.07 ± 0.52	–
353.15 K, x1 = 0.5565	1199.33 ± 0.62	–
353.15 K, x1 = 0.717	1218.68 ± 0.86	–
353.15 K, x1 = 0.7826	1225.73 ± 0.96	–
353.15 K, x1 = 0.901	1237.16 ± 1.2	–
353.15 K, x1 = 1	1245.87 ± 1.4	–

C1COCCO1 [1,4-dioxane] + CCCCn1cc[n+](C)c1.F[B-](F)(F)F
Conditions	mass density, [1] [kg/m3]	refractive index, [2]
293.15 K, x2 = 0	1033.57 ± 0.26	–
293.15 K, x2 = 0.2559	1118.75 ± 0.35	–
293.15 K, x2 = 0.3956	1146.31 ± 0.36	–
293.15 K, x2 = 0.4988	1161.37 ± 0.36	–
293.15 K, x2 = 0.6	1173.1 ± 0.37	–
293.15 K, x2 = 0.7021	1183.04 ± 0.38	–
293.15 K, x2 = 0.8993	1198.09 ± 0.39	–
298.15 K, x2 = 0	1027.92 ± 0.25	1.4205 ± 0.0004
298.15 K, x2 = 0.2559	1114.31 ± 0.34	1.4253 ± 0.0004
298.15 K, x2 = 0.3956	1142.23 ± 0.35	1.4258 ± 0.0004
298.15 K, x2 = 0.4988	1157.44 ± 0.36	1.4256 ± 0.0004
298.15 K, x2 = 0.6	1169.26 ± 0.37	1.4249 ± 0.0004
298.15 K, x2 = 0.7021	1179.3 ± 0.38	1.4241 ± 0.0004
298.15 K, x2 = 0.8993	1194.53 ± 0.39	1.4222 ± 0.0004
303.15 K, x2 = 0	1022.27 ± 0.25	1.4171 ± 0.0004
303.15 K, x2 = 0.2559	1109.87 ± 0.34	1.4236 ± 0.0004
303.15 K, x2 = 0.3956	1138.14 ± 0.35	1.4244 ± 0.0004
303.15 K, x2 = 0.4988	1153.51 ± 0.36	1.4242 ± 0.0004
303.15 K, x2 = 0.6	1165.45 ± 0.37	1.4235 ± 0.0004
303.15 K, x2 = 0.7021	1175.57 ± 0.37	1.4225 ± 0.0004
303.15 K, x2 = 0.8993	1190.95 ± 0.39	1.4207 ± 0.0004
313.15 K, x2 = 0	1010.91 ± 0.24	1.4112 ± 0.0004
313.15 K, x2 = 0.2559	1101.06 ± 0.33	1.4196 ± 0.0004
313.15 K, x2 = 0.3956	1130.01 ± 0.34	1.421 ± 0.0004
313.15 K, x2 = 0.4988	1145.69 ± 0.35	1.4211 ± 0.0004
313.15 K, x2 = 0.6	1157.84 ± 0.36	1.4206 ± 0.0004
313.15 K, x2 = 0.7021	1168.15 ± 0.37	1.4199 ± 0.0004
313.15 K, x2 = 0.8993	1183.8 ± 0.38	1.4183 ± 0.0004
323.15 K, x2 = 0	999.49 ± 0.23	1.4063 ± 0.0004
323.15 K, x2 = 0.2559	1092.28 ± 0.33	1.4161 ± 0.0004
323.15 K, x2 = 0.3956	1121.91 ± 0.34	1.4179 ± 0.0004
323.15 K, x2 = 0.4988	1137.92 ± 0.35	1.4181 ± 0.0004
323.15 K, x2 = 0.6	1150.29 ± 0.35	1.4177 ± 0.0004
323.15 K, x2 = 0.7021	1160.77 ± 0.36	1.4169 ± 0.0004
323.15 K, x2 = 0.8993	1176.68 ± 0.38	1.4155 ± 0.0004
333.15 K, x2 = 0	987.97 ± 0.23	–
333.15 K, x2 = 0.2559	1083.47 ± 0.32	–
333.15 K, x2 = 0.3956	1113.85 ± 0.33	–
333.15 K, x2 = 0.4988	1130.18 ± 0.34	–
333.15 K, x2 = 0.6	1142.79 ± 0.35	–
333.15 K, x2 = 0.7021	1153.44 ± 0.36	–
333.15 K, x2 = 0.8993	1169.6 ± 0.37	–
343.15 K, x2 = 0	976.37 ± 0.23	–
343.15 K, x2 = 0.2559	1074.65 ± 0.32	–
343.15 K, x2 = 0.3956	1105.8 ± 0.32	–
343.15 K, x2 = 0.4988	1122.47 ± 0.33	–
343.15 K, x2 = 0.6	1135.31 ± 0.34	–
343.15 K, x2 = 0.7021	1146.14 ± 0.35	–
343.15 K, x2 = 0.8993	1162.53 ± 0.36	–
353.15 K, x2 = 0	964.63 ± 0.23	–
353.15 K, x2 = 0.2559	1065.8 ± 0.32	–
353.15 K, x2 = 0.3956	1097.77 ± 0.32	–
353.15 K, x2 = 0.4988	1114.8 ± 0.33	–
353.15 K, x2 = 0.6	1127.87 ± 0.34	–
353.15 K, x2 = 0.7021	1138.89 ± 0.34	–
353.15 K, x2 = 0.8993	1155.57 ± 0.36	–
